Tested on: subtypes of Hu-IFNα
Test: affinity of the peptides in solution and bound to solid supports (affinity chromatography)
Type: binding, human
Settings: both in solution and bound to solid supports
Description: Therefore they can be used, when bound to suitable matrices on solid supports, in affinity chromatography for the separation and purification of the subtype Hu-IFNα8. Moreover, when conveniently functionalized, they can be used for the specific detection of Hu-IFNα8 in analytical techniques like the detection of compounds splitted in SDS-PAGE and transferred on nitrocellulose sheets (SDS-PAGE-blotting) or the detection of compounds immobilized on solid supports (enzyme linked immuno sorbent assay or ELISA). Therefore the matrices on solid supports for the affinity chromatography to which the IFNα-AP, IFNω-AP, IFNα-IC and IFNω-IC oligopeptides are linked and the use thereof in the separation and purification of the Hu-IFNα8 protein are a further object of the invention.
Each of the peptides from number 1 to number 6, at the end of the synthesis, has been linked to a solid support useful for affinity chromatographies, preferably made by a polymeric resin based on acrylamide or agarose, and each matrix functionalized in this way has been packed on a chromatographic column on which, at a neutral pH, a mixture of Hu-IFNα having a specific activity between 1 e 100 x 10^5 international units for each milligram of total proteins (IU/mg) and with a Hu-IFNα concentration between 0.1 and 5 x 10^6 IU has been pressed through. […]

Substance | affinity for subtypes of Hu-IFNα
H-Gly-Phe-His-Asp-Phe-His-Ser-Asp-Asn-Phe-OH (H-GFHDFHSDNF-OH) [IFNω-AP] | only for some subtypes of Hu-IFNα, mainly for the subtype IFNα8
H-Gly-Ser-His-Asp-Phe-Cys-Ser-Asp-Asn-Leu-OH (H-GSHDFCSDNL-OH) [IFNα-AP] | only for some subtypes of Hu-IFNα, mainly for the subtype IFNα8

From patent EP0915099A1, “Antiparallel oligopeptides and hydrophobically complementary oligopeptides, matrices containing them and use thereof in the purification and detection of subtypes of alpha interferon” (ALFA WASSERMANN S.p.A., priority 1997, dated 1999)
